Publication PMC8550792, “Evolution of kinase polypharmacology across HSP90 drug discovery” (Cell Chemical Biology, 2021)
“And” between values parts separate entries of the source, which are not always exact repeats. Equal entries are not always repeated.

Assays:
PDK2/PDHK2 = target: T1, PDK2/PDHK2 (Homo sapiens, UniProt Q15119); assay: HotSpot in vitro kinase radiometric assay; format: biochemical
T1 construct: purchased Reaction Biology (HotSpot contract assay)
Outline: (§1)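 Off-target screen in a radioisotope catalytic assay: test compounds incubated with each kinase, its substrate, cofactors and 33P- or 32P-labelled ɣ-ATP. Filters retaining labelled product gave the signal.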

LYN B = target: T2, LYN B (Homo sapiens, UniProt P07948); assay: HotSpot in vitro kinase radiometric assay; format: biochemical
T2 construct: purchased Reaction Biology (HotSpot contract assay)
T2 sequence (P07948 1-491 isoform P07948-2): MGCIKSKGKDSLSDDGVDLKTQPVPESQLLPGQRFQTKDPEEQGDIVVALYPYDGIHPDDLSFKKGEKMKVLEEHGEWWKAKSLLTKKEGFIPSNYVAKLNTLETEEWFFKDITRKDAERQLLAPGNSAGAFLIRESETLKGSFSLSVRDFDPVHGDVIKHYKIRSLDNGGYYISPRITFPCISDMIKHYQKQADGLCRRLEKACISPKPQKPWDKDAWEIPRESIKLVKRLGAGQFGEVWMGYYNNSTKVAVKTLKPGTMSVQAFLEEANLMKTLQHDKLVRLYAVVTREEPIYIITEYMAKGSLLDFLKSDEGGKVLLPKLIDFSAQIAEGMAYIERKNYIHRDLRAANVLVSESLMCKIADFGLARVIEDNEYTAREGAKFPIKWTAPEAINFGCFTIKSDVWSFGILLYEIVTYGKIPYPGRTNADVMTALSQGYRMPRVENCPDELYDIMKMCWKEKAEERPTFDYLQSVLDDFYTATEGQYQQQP
Outline: as §1

HSP90AB1 = test system: HSP90AB1; parameters: method as in ChEMBL23 (accessed: 23/08/2018); settings: average of reported values; ref ChEMBL23 (accessed: 23/08/2018); cited from earlier work
DDR1 = DDR1 (Homo sapiens, UniProt Q08345); assay: HotSpot in vitro kinase radiometric assay; format: biochemical; parameters: purchased Reaction Biology (HotSpot contract assay)
Sequence of DDR1 (Q08345 19-913): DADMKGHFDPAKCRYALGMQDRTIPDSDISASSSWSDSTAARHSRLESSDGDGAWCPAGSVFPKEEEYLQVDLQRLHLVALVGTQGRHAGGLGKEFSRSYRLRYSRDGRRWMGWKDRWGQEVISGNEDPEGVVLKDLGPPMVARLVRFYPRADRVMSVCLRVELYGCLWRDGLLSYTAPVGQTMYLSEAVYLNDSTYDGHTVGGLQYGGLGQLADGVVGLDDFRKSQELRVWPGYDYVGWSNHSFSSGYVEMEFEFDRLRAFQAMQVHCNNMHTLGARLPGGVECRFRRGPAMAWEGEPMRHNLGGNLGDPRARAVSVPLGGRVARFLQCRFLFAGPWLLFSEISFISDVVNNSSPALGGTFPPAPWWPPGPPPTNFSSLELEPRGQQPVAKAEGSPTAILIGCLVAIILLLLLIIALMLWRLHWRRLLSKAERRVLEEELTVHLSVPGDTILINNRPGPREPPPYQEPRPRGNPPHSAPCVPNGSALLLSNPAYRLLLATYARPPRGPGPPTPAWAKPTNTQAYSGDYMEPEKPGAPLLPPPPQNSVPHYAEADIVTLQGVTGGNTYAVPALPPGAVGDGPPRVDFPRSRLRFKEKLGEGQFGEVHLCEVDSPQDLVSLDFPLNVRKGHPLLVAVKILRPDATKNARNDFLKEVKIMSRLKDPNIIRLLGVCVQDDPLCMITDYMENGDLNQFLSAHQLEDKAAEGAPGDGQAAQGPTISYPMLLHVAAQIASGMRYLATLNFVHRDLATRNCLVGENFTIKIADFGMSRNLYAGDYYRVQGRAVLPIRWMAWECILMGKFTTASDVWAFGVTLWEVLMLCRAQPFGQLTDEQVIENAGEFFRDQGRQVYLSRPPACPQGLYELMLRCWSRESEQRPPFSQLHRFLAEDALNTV

HSP90AA1 = settings: cited from earlier work
ABL2/ARG = target: T3, ABL2/ARG (Homo sapiens, UniProt P42684); assay: HotSpot in vitro kinase radiometric assay; format: biochemical
T3 construct: purchased Reaction Biology (HotSpot contract assay)

ABL1 = ABL1 (Homo sapiens, UniProt P00519); assay: HotSpot in vitro kinase radiometric assay; format: biochemical; parameters: purchased Reaction Biology (HotSpot contract assay)
PEAK1 = target: T4, PEAK1 (Homo sapiens, UniProt Q9H792); assay: HotSpot in vitro kinase radiometric assay; format: biochemical
T4 construct: purchased Reaction Biology (HotSpot contract assay)
T4 sequence (Q9H792 whole entry): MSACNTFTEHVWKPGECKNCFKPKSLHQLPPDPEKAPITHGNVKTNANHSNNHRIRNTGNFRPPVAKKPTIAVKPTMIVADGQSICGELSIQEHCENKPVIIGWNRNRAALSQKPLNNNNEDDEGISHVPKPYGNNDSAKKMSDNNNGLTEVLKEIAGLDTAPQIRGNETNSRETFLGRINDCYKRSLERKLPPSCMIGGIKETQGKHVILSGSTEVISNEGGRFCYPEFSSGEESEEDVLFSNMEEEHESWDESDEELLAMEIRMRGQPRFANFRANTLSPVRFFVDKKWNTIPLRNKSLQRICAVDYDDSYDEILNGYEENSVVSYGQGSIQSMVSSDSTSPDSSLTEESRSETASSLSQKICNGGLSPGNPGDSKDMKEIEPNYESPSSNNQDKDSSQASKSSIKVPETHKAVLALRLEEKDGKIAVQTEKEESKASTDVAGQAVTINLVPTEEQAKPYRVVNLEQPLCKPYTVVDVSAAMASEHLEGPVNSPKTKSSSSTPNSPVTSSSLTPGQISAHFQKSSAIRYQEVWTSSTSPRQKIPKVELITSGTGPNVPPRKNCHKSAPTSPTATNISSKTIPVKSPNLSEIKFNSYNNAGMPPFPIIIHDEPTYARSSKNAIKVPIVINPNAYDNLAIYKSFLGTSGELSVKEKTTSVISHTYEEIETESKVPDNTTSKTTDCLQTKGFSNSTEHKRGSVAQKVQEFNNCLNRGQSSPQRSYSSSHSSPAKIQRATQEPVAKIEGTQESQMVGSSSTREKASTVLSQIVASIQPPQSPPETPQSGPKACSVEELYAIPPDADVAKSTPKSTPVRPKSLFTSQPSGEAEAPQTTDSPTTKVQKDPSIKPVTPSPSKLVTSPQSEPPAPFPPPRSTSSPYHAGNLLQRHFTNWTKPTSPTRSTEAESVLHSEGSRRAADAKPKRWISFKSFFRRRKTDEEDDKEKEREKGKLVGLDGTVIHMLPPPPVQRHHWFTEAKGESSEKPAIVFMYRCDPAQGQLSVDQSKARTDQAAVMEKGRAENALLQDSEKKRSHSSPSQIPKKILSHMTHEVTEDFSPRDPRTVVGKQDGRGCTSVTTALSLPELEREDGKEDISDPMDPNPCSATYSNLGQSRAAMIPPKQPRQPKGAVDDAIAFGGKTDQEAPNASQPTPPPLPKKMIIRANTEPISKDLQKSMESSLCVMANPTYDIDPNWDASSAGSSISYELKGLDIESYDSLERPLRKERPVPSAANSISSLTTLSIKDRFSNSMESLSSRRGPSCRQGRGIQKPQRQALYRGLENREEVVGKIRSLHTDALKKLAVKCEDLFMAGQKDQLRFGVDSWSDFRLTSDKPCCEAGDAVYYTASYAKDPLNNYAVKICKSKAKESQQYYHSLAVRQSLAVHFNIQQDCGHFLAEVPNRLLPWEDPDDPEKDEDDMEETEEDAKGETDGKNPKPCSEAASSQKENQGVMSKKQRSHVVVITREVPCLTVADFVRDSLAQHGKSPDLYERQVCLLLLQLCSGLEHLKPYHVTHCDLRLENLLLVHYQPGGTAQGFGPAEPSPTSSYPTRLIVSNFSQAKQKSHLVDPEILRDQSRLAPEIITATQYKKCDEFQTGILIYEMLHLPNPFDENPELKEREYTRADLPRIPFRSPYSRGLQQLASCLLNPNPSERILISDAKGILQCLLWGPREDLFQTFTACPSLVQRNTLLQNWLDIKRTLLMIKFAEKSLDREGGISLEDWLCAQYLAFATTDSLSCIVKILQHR

FYN = target: T5, FYN (Homo sapiens, UniProt P06241); assay: HotSpot in vitro kinase radiometric assay; format: biochemical
T5 construct: purchased Reaction Biology (HotSpot contract assay)
T5 sequence (P06241 whole entry): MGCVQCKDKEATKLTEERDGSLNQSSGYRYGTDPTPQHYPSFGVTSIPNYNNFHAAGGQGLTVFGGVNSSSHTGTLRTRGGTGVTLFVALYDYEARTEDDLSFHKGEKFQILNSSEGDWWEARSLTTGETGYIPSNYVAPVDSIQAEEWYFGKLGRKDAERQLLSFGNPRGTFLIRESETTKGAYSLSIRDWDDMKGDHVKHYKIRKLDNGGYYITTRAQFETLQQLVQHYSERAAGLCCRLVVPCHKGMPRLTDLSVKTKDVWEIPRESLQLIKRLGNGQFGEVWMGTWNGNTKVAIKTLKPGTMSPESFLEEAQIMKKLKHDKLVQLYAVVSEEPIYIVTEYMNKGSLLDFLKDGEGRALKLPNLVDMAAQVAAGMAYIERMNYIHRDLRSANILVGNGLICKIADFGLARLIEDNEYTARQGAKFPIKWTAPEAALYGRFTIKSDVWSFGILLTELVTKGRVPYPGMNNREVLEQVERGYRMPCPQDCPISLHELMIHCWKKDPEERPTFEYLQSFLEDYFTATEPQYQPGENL

LCK = target: T6, LCK (Homo sapiens, UniProt P06239); assay: HotSpot in vitro kinase radiometric assay; format: biochemical
T6 construct: purchased Reaction Biology (HotSpot contract assay)
T6 sequence (P06239 whole entry): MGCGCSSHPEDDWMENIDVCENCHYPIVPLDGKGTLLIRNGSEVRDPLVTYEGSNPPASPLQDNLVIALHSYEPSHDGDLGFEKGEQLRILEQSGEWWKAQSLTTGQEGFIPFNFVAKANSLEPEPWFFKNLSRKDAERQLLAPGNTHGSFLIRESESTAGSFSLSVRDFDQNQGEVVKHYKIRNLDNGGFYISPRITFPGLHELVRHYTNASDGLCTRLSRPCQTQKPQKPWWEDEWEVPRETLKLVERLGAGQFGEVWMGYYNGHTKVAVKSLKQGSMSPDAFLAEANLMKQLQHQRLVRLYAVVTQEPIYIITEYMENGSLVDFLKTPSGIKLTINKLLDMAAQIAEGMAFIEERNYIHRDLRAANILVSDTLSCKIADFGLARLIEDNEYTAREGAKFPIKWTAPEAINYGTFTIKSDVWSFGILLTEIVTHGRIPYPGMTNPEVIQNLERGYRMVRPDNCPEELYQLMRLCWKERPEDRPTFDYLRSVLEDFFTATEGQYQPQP

YES/YES1 = target: T7, YES/YES1 (Homo sapiens, UniProt P07947); assay: HotSpot in vitro kinase radiometric assay; format: biochemical
T7 construct: purchased Reaction Biology (HotSpot contract assay)

FGR = target: T8, FGR (Homo sapiens, UniProt P09769); assay: HotSpot in vitro kinase radiometric assay; format: biochemical
T8 construct: purchased Reaction Biology (HotSpot contract assay)
T8 sequence (P09769 whole entry): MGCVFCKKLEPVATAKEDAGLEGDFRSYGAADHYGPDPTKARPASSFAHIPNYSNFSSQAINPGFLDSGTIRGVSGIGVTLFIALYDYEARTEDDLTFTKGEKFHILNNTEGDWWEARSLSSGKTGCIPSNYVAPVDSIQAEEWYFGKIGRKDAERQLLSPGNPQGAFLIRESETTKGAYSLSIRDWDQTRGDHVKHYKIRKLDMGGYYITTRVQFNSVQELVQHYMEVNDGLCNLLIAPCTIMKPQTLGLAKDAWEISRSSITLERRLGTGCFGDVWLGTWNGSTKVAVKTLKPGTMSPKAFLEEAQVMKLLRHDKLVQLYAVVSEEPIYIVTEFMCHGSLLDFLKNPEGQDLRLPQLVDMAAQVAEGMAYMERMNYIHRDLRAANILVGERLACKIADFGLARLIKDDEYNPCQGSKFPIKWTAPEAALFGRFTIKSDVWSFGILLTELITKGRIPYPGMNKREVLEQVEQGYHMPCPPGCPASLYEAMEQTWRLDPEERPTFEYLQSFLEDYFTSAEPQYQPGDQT

TRKA = target: T9, TRKA (Homo sapiens, UniProt P04629); assay: HotSpot in vitro kinase radiometric assay; format: biochemical
T9 construct: purchased Reaction Biology (HotSpot contract assay)
Outline: as §1

PASK = target: T10, PASK (Homo sapiens, UniProt Q96RG2); assay: HotSpot in vitro kinase radiometric assay; format: biochemical
T10 construct: purchased Reaction Biology (HotSpot contract assay)
Outline: as §1

For `CCNC(=O)c1noc(-c2cc(Cl)c(O)cc2O)c1-c1ccc(OC)cc1` [VER-50589], the “% Enzyme Activity (relative to DMSO controls)” value (PDK2/PDHK2; PDK2/PDHK2, 10uM, ATP 15 uM, Data 1, Data 2) was 9.11% and 0.34%, the inhibition at 10 µM (PDK2/PDHK2; read-out: % inhibition at 10 uM: PDK2, 10 μM, Fig 6C median ± standard deviation (n = 2)) was 95 ± 6% and the “% Enzyme Activity (relative to DMSO controls)” value (LYN B; LYN B, 10uM, ATP 20 uM, Data 1, Data 2) was 103.45%. The remaining activity at 10 µM (LYN B; LYN B, 10uM, ATP 20 uM, Data 1, Data 2, read-out: % Enzyme Activity (relative to DMSO controls)) was 105%, the inhibition at 10 µM (LYN B; read-out: % inhibition at 10 uM: LYN B, 10 μM, Fig 6C median ± standard deviation (n = 2)) was -4 ± 1% and the “pActivity, HSP90AB1” value (HSP90AB1) was 7.55. The “% Enzyme Activity (relative to DMSO controls)” value (DDR1; DDR1, 10uM, ATP 100 uM, Data 1, Data 2) was 93.93%, the remaining activity at 10 µM (DDR1; DDR1, 10uM, ATP 100 uM, Data 1, Data 2, read-out: % Enzyme Activity (relative to DMSO controls)) was 90.3% and the inhibition at 10 µM (DDR1; read-out: % inhibition at 10 uM: DDR1, 10 μM, Fig 6C median ± standard deviation (n = 2)) was 8 ± 3%. For the same molecule, the IC50 (HSP90AA1; Fig 6C, IC50 against HSP90 shown for comparison, source not given) was 0.021 µM, the “pActivity, HSP90AA1” value (HSP90AA1; average of reported values, ref ChEMBL23 (accessed: 23/08/2018)) was 7.55 and the “% Enzyme Activity (relative to DMSO controls)” value (ABL2/ARG; ABL2/ARG, 10uM, ATP 30 uM, Data 1, Data 2) was 107.1%. The remaining activity at 10 µM (ABL2/ARG; ABL2/ARG, 10uM, ATP 30 uM, Data 1, Data 2, read-out: % Enzyme Activity (relative to DMSO controls)) was 99.9%, the inhibition at 10 µM (ABL2/ARG; read-out: % inhibition at 10 uM: ABL2, 10 μM, Fig 6C median ± standard deviation (n = 2)) was -4 ± 5% and the “% Enzyme Activity (relative to DMSO controls)” value (ABL1; ABL1, 10uM, ATP 40 uM, Data 1, Data 2) was 99.15%. The remaining activity at 10 µM (ABL1; ABL1, 10uM, ATP 40 uM, Data 1, Data 2, read-out: % Enzyme Activity (relative to DMSO controls)) was 96%, the inhibition at 10 µM (ABL1; read-out: % inhibition at 10 uM: ABL1, 10 μM, Fig 6C median ± standard deviation (n = 2)) was 2 ± 2% and the “% Enzyme Activity (relative to DMSO controls)” value (PEAK1; PEAK1, 10uM, ATP 30 uM, Data 1, Data 2) was 104.61%. The remaining activity at 10 µM (PEAK1; PEAK1, 10uM, ATP 30 uM, Data 1, Data 2, read-out: % Enzyme Activity (relative to DMSO controls)) was 105%, the inhibition at 10 µM (PEAK1; read-out: % inhibition at 10 uM: PEAK1, 10 μM, Fig 6C median ± standard deviation (n = 2)) was -5 ± 1% and the “% Enzyme Activity (relative to DMSO controls)” value (FYN; FYN, 10uM, ATP 30 uM, Data 1, Data 2) was 116.15%. The remaining activity at 10 µM (FYN; FYN, 10uM, ATP 30 uM, Data 1, Data 2, read-out: % Enzyme Activity (relative to DMSO controls)) was 109%, the inhibition at 10 µM (FYN; read-out: % inhibition at 10 uM: FYN, 10 μM, Fig 6C median ± standard deviation (n = 2)) was -13 ± 5% and the “% Enzyme Activity (relative to DMSO controls)” value (LCK; LCK, 10uM, ATP 15 uM, Data 1, Data 2) was 102.22%. For the same molecule, the remaining activity at 10 µM (LCK; LCK, 10uM, ATP 15 uM, Data 1, Data 2, read-out: % Enzyme Activity (relative to DMSO controls)) was 111%, the inhibition at 10 µM (LCK; read-out: % inhibition at 10 uM: LCK, 10 μM, Fig 6C median ± standard deviation (n = 2)) was -6 ± 6% and the “% Enzyme Activity (relative to DMSO controls)” value (YES/YES1; YES/YES1, 10uM, ATP 50 uM, Data 1, Data 2) was 96.18%. The remaining activity at 10 µM (YES/YES1; YES/YES1, 10uM, ATP 50 uM, Data 1, Data 2, read-out: % Enzyme Activity (relative to DMSO controls)) was 102%, the inhibition at 10 µM (YES/YES1; read-out: % inhibition at 10 uM: YES, 10 μM, Fig 6C median ± standard deviation (n = 2)) was 1 ± 4% and the “% Enzyme Activity (relative to DMSO controls)” value (FGR; FGR, 10uM, ATP 50 uM, Data 1, Data 2) was 109.55%. The remaining activity at 10 µM (FGR; FGR, 10uM, ATP 50 uM, Data 1, Data 2, read-out: % Enzyme Activity (relative to DMSO controls)) was 104%, the inhibition at 10 µM (FGR; read-out: % inhibition at 10 uM: FGR, 10 μM, Fig 6C median ± standard deviation (n = 2)) was -7 ± 4% and the “% Enzyme Activity (relative to DMSO controls)” value (TRKA; TRKA, 10uM, ATP 100 uM, Data 1, Data 2) was 96.8%. The remaining activity at 10 µM (TRKA; TRKA, 10uM, ATP 100 uM, Data 1, Data 2, read-out: % Enzyme Activity (relative to DMSO controls)) was 100%, the inhibition at 10 µM (TRKA; read-out: % inhibition at 10 uM: TRKA, 10 μM, Fig 6C median ± standard deviation (n = 2)) was 2 ± 2% and the “% Enzyme Activity (relative to DMSO controls)” value (PASK; PASK, 10uM, ATP 50 uM, Data 1, Data 2) was 102.75%. For the same molecule, the remaining activity at 10 µM (PASK; PASK, 10uM, ATP 50 uM, Data 1, Data 2, read-out: % Enzyme Activity (relative to DMSO controls)) was 109% and the inhibition at 10 µM (PASK; read-out: % inhibition at 10 uM: PASK, 10 μM, Fig 6C median ± standard deviation (n = 2)) was -6 ± 5%.
